Measurements: patent US20250017905A1, “COMPOSITION FOR INHIBITING HISTAMINE-N-METHYLTRANSFERASE” (SUNTORY HOLDINGS LIMITED, priority 2021, published 2025)

Molecular target: T1, recombinant human histamine-N-methyltransferase (HNMT) (Homo sapiens, UniProt P50135)
T1 construct: host or cells: Escherichia coli
Experiment: Evaluation of histamine-N-methyltransferase inhibitory activity (Eurofins Panlabs, [3H]N-methylhistamine formation)
Type: biochemical
Description: The study was commissioned to Eurofins Panlabs. The study was performed using recombinant human histamine-N-methyltransferase (HNMT) expressed in Escherichia coli. First, HNMT (0.025 μg/mL) was incubated with L-ergothioneine (L-ergothioneine concentration: 10 μM, 30 μM, 100 μM, 300 μM, or 1000 μM) in a phosphate buffer (pH 7.8) at 37° C. for 15 minutes. Next, 20 μM histamine, 1.4 μM S-(5′-adenosyl)-L-methionine, and 0.014 μM S-adenosyl-L-[methyl-3H]methionine were added to initiate an enzymatic reaction. After incubating at 37° C. for 30 minutes, 2.5 M borate was added to terminate the reaction. Lastly, the enzyme inhibitory activity of L-ergothioneine was evaluated using the amount of [3H]N-methylhistamine formed in the reaction as an index.
The concentration (μM) on the horizontal axis is the L-ergothioneine concentration.

T1 sequence (P50135 whole entry): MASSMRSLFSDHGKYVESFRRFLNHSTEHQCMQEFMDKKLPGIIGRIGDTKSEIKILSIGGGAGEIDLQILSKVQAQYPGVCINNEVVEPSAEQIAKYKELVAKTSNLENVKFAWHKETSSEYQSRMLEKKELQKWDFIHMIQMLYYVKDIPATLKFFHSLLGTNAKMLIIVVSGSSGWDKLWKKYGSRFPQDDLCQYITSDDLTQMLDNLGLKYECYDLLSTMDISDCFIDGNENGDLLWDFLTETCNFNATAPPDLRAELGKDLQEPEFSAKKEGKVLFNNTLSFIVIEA

SMILES: C[N+](C)(C)[C@@H](Cc1c[nH]c(=S)[nH]1)C(=O)[O-] [L-ergothioneine]
- histamine-N-methyltransferase inhibition (FIG. 1), in words (10 μM, 30 μM, 100 μM, 300 μM, or 1000 μM): concentration-dependent manner
- IC50 (HNMT 0.025 μg/mL, phosphate buffer pH 7.8, 37° C., 20 μM histamine, 10-1000 μM tested, read-out: L-ergothioneine concentration (IC50) that inhibits 50% of substrate binding of histamine-N-methyltransferase): 46.2 µM
